The values that follow come from patent US5330992A, “1-cyclopropyl-4-pyridyl-quinolinones” (priority 1992, dated 1994).

Data set [1] concerns P388 murine leukemia cells. The data set can be described thus: Malignant cell cytotoxicity, one-hour exposure (clonogenic survival in soft agar). The data set is classed as cell-based. Particulars: Mus musculus, 1 hr exposure, read-out: IC50 P388 1 hr. exp. Here is the method: Examples of compound I having Topo II activity were tested for malignant cell cytotoxicity. In vitro cytotoxicity was assayed by determining cell survival following exposure of P388 murine leukemia cells to a range of test compound concentrations. Cytotoxicity was quantitated following either a one-hour exposure or continuous exposure of P388 cells to test compound.
Cytotoxicity following a one-hour exposure of cells to drug was assayed by quantitating clonogenic cell survival according to a published procedure [Freshney, R. L. (1987) Culture of Animal Cells. A Manual of Basic Technique. Wiley-Liss Inc., New York, N.Y., pp. 140-144]. Briefly, following drug exposure cells were plated in soft agar and incubated (37°, 5% CO2) for 7-10 days during which time viable cells form visible colonies. Cytotoxicity following continuous exposure of cells to test compound was assayed by quantitating total P388 cells on a Coultier Counter following a 48-hour co-incubation of test compound with cells. P388 cells were maintained in log phase throughout the duration of cytotoxicity assays.
The percentage of cells surviving relative to an untreated control was graphed as a function of increasing drug concentration.

The nature of data set [2]: In vivo antitumor assay, P388(ip). Particulars: mouse, in vivo. An excerpt:
(§1) Mice: Inbred: C3H/He and NCR-nu; and Hybrids: B6D2Fl (C57BL/6 females X DBA/2 males, CD2Fl (Balb/c females X DBS/2 males) and B6x C3fl (C57BL/6 x C3H) were bred at Wayne State University from strained obtained from the Frederick Cancer Research Facility, Frederick, Md. or purchased from commercial suppliers.
(§2) Tumors: Murine Tumor: P388 and an adriamycin-resistant (ADR) subline P388/ADR leukemia and the following transplantable solid tumors of mice were used for in Vivo testing: B16 melanoma (B16), pancreatic ductal adenocarcinoma No. 03 (Panc 03), colon adenocarcinoma No. 38 (colo 38), mammary ductal adenocarcinoma No. 16/C (Mam16) and an adriamycin-resistantsubline Mam16C/ADR. Human tumor: A single human tumor, mammary carcinoma MX-1 (MX1) was used for in vivo testing. All tumors are in the Developmental Therapeutics Program frozen tumor respository, maintained by the Biological Testing Branch, Frederick Md. Each has a detailed description, code identification number, and list of references at the National Tumor Repository. Murine tumors were maintained in the mouse strain of origin and were transplanted in the appropriate F1 hydrid (or the strain of origin) for therapy trials. Human mammary carcinoma MX-1 MX1) was maintained as a subcutaneous implant in either athymic Swiss (Cr: NIH(S)-nu) or athymic random bred (NCR-nu) mice and transplanted in NCR-nu for therapy trials.
(§3) For P388 and P388/ADR leukemia studies the tumor cells were implanted either IP or intravenously (IV) on day zero and treatment was started on day one. For B16 melanoma (B16) studies, the tumor cells were implanted IP on day zero and treatment was started on day one. Tirered controls were also included to facilitate the calculation of tumor cell kill. For mammary carcinoma MX-1 studies, tumors were implanted with 1) subcutaneously (sc) (14-mg fragment of s.c. donor tumor) in the axillary region or 2) under the subrenal capsule (src) (10×10×10 ocular micrometer unit fragment of s.c. donor tumor). Treatment started on the day after subrenal capsule tumor implant or when the subcutaneous tumor implant had reached 100-700 mg.
(§4) Quantitative end points used assess antitumor activity included % Increased Life Span (% ILS), Tumor Cell Kill (Log10 kill), and Tumor Growth Inhibition (T/C). Long Term Survivors (45 or 60 day) were excluded from calculations of % ILS and Tumor Cell Kill.
(§5) Endpoints were calculated as follows: % ILS [formula] where Dt is the median day of death for treated and Dc is the median day of death for control groups. A % ILS ≥20 or ≥25 for P388 and B16 intraperitoneal models, respectively, is indicative of a significant degree of antitumor activity. A % ILS ≥75 or ≥50 for P388 and B16 intraperitoneal models, respectively, is indicative of a high degree of antitumor activity and is the level used by National Cancer Institute to justify further development if other requirements are met (termed DN-2 level activity). Minimum quantitative activity limits for additional P388 models (e.g. P388/ADR and P388, IJV) have not been defined. However, the activity limits specified for the intraperitoneal models may be applied as in the majority of instances these models are found to be signficantly […] challenging.
(§6) The log10 cell kill was calculated from the following formula: [formula] where T-C is the tumor difference in the median day of death between the treated (T) and the control (C) groups and Td is the tumor doubling time (in days), the latter estimated from the best fit straight line from a log-linear growth plot of the control-group tumors in exponential growth. The conversion of the T-C values to log10 cell kill is possible because the Td for tumors regrowing post-treatment approximated the Td values of the tumors in untreated control mice.

A further data set relates to P388 leukemia. The data set can be described thus: In vivo antitumor assay, P388(ip). Particulars: P388(ip), qd 1,5,9; for ILS %: increased life span; for LOG KILL: log10 cell kill.
Description: as §1, §2, §3, §4, §5, §6

Where [3] appears, read: P388(ip), drug route ip, qd 1,5,9.
Where [4] appears, read: P388(ip), drug route iv, qd 1,5,9.

Each structure is given as a SMILES string.

One may read the IC50 as the midpoint of a concentration-inhibition curve. Regarding `Cc1cc(-c2c(F)cc3c(=O)c(Cc4ccc(O)cc4O)cn(C4CC4)c3c2F)cc(C)n1` [Example 33], the 50% inhibitory concentration (IC50) in data set [1] turned out to be 210 nM. Moreover, the MTD was determined as 37 mg/kg in data set [2] (iv) and 19 mg/kg in data set [2] (setting [3]). Moreover, the ILS % in the data set with P388 leukemia (drug route ip) and in the data set with P388 leukemia (drug route iv) was 50% each time. The “LOG KILL” value with P388 leukemia (drug route ip) and with P388 leukemia (drug route iv) was 3.6 in each case.

As to `Cc1cc(-c2c(F)cc3c(=O)c(Cc4c(O)cccc4O)cn(C4CC4)c3c2F)cc(C)n1` [Example 26, 1-Cyclopropyl-6,8-difluoro-7-[2,6-dimethyl-4-pyridinyl]-3-[2,6-dihydroxyphenylmethyl]-1,4-dihydroquinoline-4-one], the IC50 in data set [1] turned out to be 250 nM. Besides, the MTD worked out at 12 mg/kg in data set [2] (setting [3]) and 15 mg/kg in data set [2] (setting [4]). Besides, the ILS % with P388 leukemia (drug route ip) stood at 100%; in the data set with P388 leukemia (drug route iv), 80%. Besides, the figures for the “LOG KILL” value in the data set with P388 leukemia (drug route ip) and in the data set on P388 leukemia (drug route iv) were 7.3 and 5.8, respectively.

As for `Cc1cc(-c2c(F)cc3c(=O)c(Cc4ccccc4O)cn(C4CC4)c3c2F)cc(C)n1` [Example 30], in data set [1], the IC50 was determined as 670 nM. In addition, the MTD in data set [2] (setting [3]) stood at 456 mg/kg; in data set [2] (setting [4]) it was 120 mg/kg. Further, the ILS % in the data set with P388 leukemia (drug route ip) stood at 120%; in the data set with P388 leukemia (drug route iv), 20%. Moreover, the “LOG KILL” value in the data set on P388 leukemia (drug route ip) was 8.8; with P388 leukemia (drug route iv), 1.5.
